These results are taken from patent US7396643B2, “Method for the screening, the detection and/or the quantification of transcriptional factors” (Eppendorf Array Technologies, S.A., priority 2000, dated 2008).

Holding throughout (type): cell-based
The test system of one assay is AP-1. The experiment in a line: Microwell colorimetric DNA-binding assay, AP-1 (anti-c-fos). The note with it: nuclear extracts of WI-38 VA13 cells stimulated 30 min, 0.1 μg/ml PMA + 1 μM ionomycin, FIG. 2C. The source says: Step 1: Binding of the Double Strand Oligonucleotidic Probe on Multi-well Plates
The spacer double strand nucleotide sequences were constructed from the following CMV sequence: • 5′[…] (SEQ ID NO:146) acting as a spacer was linked to a) the NFκB consensus oligonucleotide 5′[…]-3′ (SEQ ID NO:147) b) the CREB consensus oligonucleotide 5′[…]-3′ (SEQ ID NO:148) and c) the AP-1 consensus oligonucleotide 5′[…]-3′ (SEQ ID NO:149). In the example the spacer was of 100 based pairs. […] Plates are then washed and the amount of DNA fixed on streptavidin-coated plates was quantified using the picogreen assay (Molecular Probes, OR, USA). […]
• cells were rinsed with cold PBS150 • cells were left swollen during 3 min in a cold hypotonic buffer (20 mM Hepes pH 7.4, 5 mM NaF, 1 mM Na2MoO4, 0.1 mM EDTA). • Cells were scrapped in 0.5 ml of hypotonic buffer containing 0.2% nonidet P40 and immediately centrifuged during 30 sec at maximal speed (13000 rpm). • The pellet was resuspended in 100 μl of lysis buffer (hypotonic buffer containing 20% glycerol, 0.4 M NaCl, phosphatases and proteases inhibitors cocktail). • The nuclear extract was agitated 30 min at 4° C., and then centrifuged for 10 min at maximal speed (13000 rpm) at 4° C. • The supernatant (=nuclear extract) was frozen at −80° C. and its proteic content was determined by the Bradford assay. […]

A further assay concerns CREB. The experiment in a line: Microarray assay of P-CREB, influence of the spacer. The following applies: whole cell lysates of WI-38 VA 13 fibroblasts, 10 μg/ml forskolin. How it is done:
Step 1: Binding of the Probes on Glass.
The binding of probes was obtained as described in the example 3 using the consensus sequence of NF-KB or CREB alone or with a spacer of 50, 100, 150 and 250 bp constructed from the sequence given in example 1.
Step 2 :Binding of NFκB on the Double Strand Probe Fixed on Micro-array
This assay was performed with whole cell lysates from WI-38 VA 13 fibroblasts stimulated with IL-1β (a NFκB activator) or 10 μg/ml of forskolin(to activate CREB). The control was 20 μl of lysis buffer mixed with 30 μl of binding buffer.
Steps 3, 4 and 5: Binding of Antibodies and Detection
The binding of the primary anti-NFκB and anti-PCREB antibodies was then used for reaction on the factors followed by a second gold labelled antibody and a calorimetric detection as in example 3. […] The values for P-CREB with unstimulated cells were 5.5 and 4 respectively with no spacer and with a 100 base spacer. The values for stimulated cells were respectively of 7 and 21 respectively with no spacer and a spacer of 100 bases pairs.

The next assay relates to NFκB. The experiment in a line: Microarray assay for DNA-binding activity of NFκB in nuclear cell extracts. The note with it: nuclear extracts of WI-38 VA 13 fibroblasts; anti-p50, gold-labelled second antibody, silver; unstimulated cells gave 10. How it is done: Step 1: Binding of the Probes on Glass
Activated glass slides bearing aldehyde groups were purchased from AAT (Belgium).
The slides were first incubated in 0.8 ml of a 50 μg/ml streptavidin solution in a 10 mM phosphate buffer (pH 7.4) containing 10 mM NaCl (PBS10 buffer). After 1 h incubation at 20° C., the plates were washed 3 times for 2 min in PBS150 containing 0.02% Tween 20 and then 2 times 2 min with water. The plates were then incubated for 2 h at 20° C. in 20 ml of PBS150 solution containing 10% non fat dried milk and then washed 5 times 2 min in PBS150 solution.
Spotting was performed with the NFκB consensus probe or with the CREB consensus probe as in example 1. The capture probes were printed onto the microscopic slides with a home made robotic device. 250 μm pins from Genetix (UK) were used. The spots have an average of 400 μm in diameter and the volume dispensed is about 1 nl. The concentration of probes used was 3000 nmolaire. […]
There was no signal for the negative control, while in nuclear cell extracts, activated NFκB is detectable in cell stimulated with IL-1, with a much higher intensity than in unstimulated. The results obtained with the nuclear cell extracts have been quantitated, using a calorimetric microarray reader including the quantification software (AAT, Namur, Belgium). […]

Take `CCCCCCCCCCCCCC(=O)O[C@@H]1[C@@H](C)[C@@]2(O)[C@@H](C=C(CO)C[C@]3(O)C(=O)C(C)=C[C@@H]23)[C@@H]2C(C)(C)[C@]12OC(C)=O` [PNA]: the “signal obtained for the assay of c-fos (AP-1)” value in the assay on AP-1 is on record as “strongly induced”. For the molecule `C=C[C@@]1(C)CC(=O)[C@]2(O)[C@@]3(C)[C@@H](O)CCC(C)(C)[C@@H]3[C@H](O)[C@H](OC(C)=O)[C@@]2(C)O1` [forskolin], the “value for P-CREB, stimulated cells, spacer of 100 base pairs” value in the assay on CREB (probe with 100 bp spacer, unstimulated cells gave 4) was found to be 21. Also, the “value for P-CREB, stimulated cells, no spacer” value in the assay on CREB (probe with no spacer, unstimulated cells gave 5.5) is reported as 7.

On to “IL-1: a NFκB activator used to stimulate cells”, for which the “spot intensity for activated NFκB, stimulated cells” value with NFκB turned out to be 175 grey intensity.
